Among the data in patent US11446287B2, “Compounds and methods for EP300 or CBP modulation and indications therefor” (Opna Immuno-Oncology SA, priority 2019, dated 2022) are IC50 values, retold here.

The test has as its target T1, Recombinant human BRD4 containing dual bromodomains (BRD4-BD12 (1-477)) (Homo sapiens, UniProt O60885).
T1 construct: Recombinant human BRD4 containing dual bromodomains (BRD4-BD12 (1-477)); made in house; host or cells: E. coli BL21-CodonPlus (DE3), modified pET vector
In words: BRD4 Alphascreen binding assay. The method in brief:
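AlphaScreen proximity between Ni-chelate-bound BRD4-BD12 (1-477) and streptavidin-captured H4 K5/K8/K12/K16-acetyl peptide measured after 1 h room-temperature compound incubation and 30 min with 7.5 μg/ml beads. Buffer: 50 mM HEPES pH 7.5, 50 mM NaCl, 0.01% BSA, 0.01% Triton X-100; data plate-normalized and four-parameter fit for IC50.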

On to `CCOc1cc(C(=O)O)nc(OCC)c1-c1cn(-c2cn(C(F)F)nc2C)c2ncc(-c3c(C)noc3C)cc12` [P-0429, 5-(1-(1-(difluoromethyl)-3-methyl-1H-pyrazol-4-yl)-5-(3,5-dimethylisoxazol-4-yl)-1H-pyrrolo[2,3-b]pyridin-3-yl)-4,6-diethoxypicolinic acid], for which the IC50 (as a rule, the concentration that inhibits the measured activity by half) was in the range of 8 to 1000 µM. As for `CCOc1cc(C(=O)O)nc(OCC)c1-c1cn(-c2cn(CC)nc2C)c2ncc(-c3c(C)noc3C)cc12` [P-0430, 5-(5-(3,5-dimethylisoxazol-4-yl)-1-(1-ethyl-3-methyl-1H-pyrazol-4-yl)-1H-pyrrolo[2,3-b]pyridin-3-yl)-4,6-diethoxypicolinic acid], the IC50 was 1 to 8 µM. The value for `CCOc1cc(C(=O)O)nc(OCC)c1-n1cc(-c2ccc(F)cc2F)c2ncc(-c3c(C)noc3C)cc21` [P-0431, 5-(3-(2,4-difluorophenyl)-6-(3,5-dimethylisoxazol-4-yl)-1H-pyrrolo[3,2-b]pyridin-1-yl)-4,6-diethoxypicolinic acid] was 1 to 8 µM; that for `CCOc1cc(C(=O)OC)nc(OCC)c1-c1cn(-c2ccc(F)cc2F)c2ncc(-c3c(C)noc3C)cc12` [P-0432, methyl 5-(1-(2,4-difluorophenyl)-5-(3,5-dimethylisoxazol-4-yl)-1H-pyrrolo[2,3-b]pyridin-3-yl)-4,6-diethoxypicolinate] was 8 to 1000 µM; that for `CCOc1cc(C(=O)O)nc(OCC)c1-c1cn(C2CCN(C(=O)OC(C)(C)C)CC2)c2ncc(-c3c(C)noc3C)cc12` [P-0433, 5-(1-(1-(tert-butoxycarbonyl)piperidin-4-yl)-5-(3,5-dimethylisoxazol-4-yl)-1H-pyrrolo[2,3-b]pyridin-3-yl)-4,6-diethoxypicolinic acid] was 8 to 1000 µM. In the case of `Cc1noc(C)c1-c1cnc2c(c1)c(C1CCC(C(=O)O)CC1)cn2-c1ccc(F)cc1F` (stereo not drawn) [P-0434, 4-(1-(2,4-difluorophenyl)-5-(3,5-dimethylisoxazol-4-yl)-1H-pyrrolo[2,3-b]pyridin-3-yl)cyclohexane-1-carboxylic acid], the IC50 is 1 to 8 µM.

As for `CCOc1cc(C(=O)O)nc(OCC)c1-c1cn(C2CCN(S(C)(=O)=O)CC2)c2ncc(-c3c(C)noc3C)cc12` [P-0435, 5-(5-(3,5-dimethylisoxazol-4-yl)-1-(1-(methylsulfonyl)piperidin-4-yl)-1H-pyrrolo[2,3-b]pyridin-3-yl)-4,6-diethoxypicolinic acid], the IC50 lay within 8 to 1000 µM. On to `CCOc1cc(C(=O)O)nc(OCC)c1-c1cn(-c2cccnc2)c2ncc(-c3c(C)noc3C)cc12` [P-0436, 5-(5-(3,5-dimethylisoxazol-4-yl)-1-(pyridin-3-yl)-1H-pyrrolo[2,3-b]pyridin-3-yl)-4,6-diethoxypicolinic acid], for which the half-maximal inhibitory concentration (IC50) lay in the range of 1 to 8 µM.

As for `Cc1noc(C)c1-c1cnc2c(c1)c(-c1ccc(CC(=O)O)cc1F)cn2-c1ccc(F)cc1F` [P-0437], the IC50 lay within 1 to 8 µM. `Cc1noc(C)c1-c1cnc2c(c1)c(-c1ccc(CC(=O)O)cc1)cn2-c1ccc(F)cc1F` [P-0438, 2-(4-(1-(2,4-difluorophenyl)-5-(3,5-dimethylisoxazol-4-yl)-1H-pyrrolo[2,3-b]pyridin-3-yl)phenyl)acetic acid]: the half-maximal inhibitory concentration (IC50) is 8 to 1000 µM.

For `Cc1noc(C)c1-c1cnc2c(c1)c(-c1c(Cl)cc(C(=O)O)cc1OC(F)(F)F)cn2-c1cccnn1` [P-0439, 3-chloro-4-(5-(3,5-dimethylisoxazol-4-yl)-1-(pyridazin-3-yl)-1H-pyrrolo[2,3-b]pyridin-3-yl)-5-(trifluoromethoxy)benzoic acid], the IC50 is 0.0001 to 1 µM. On to `COC(=O)c1cc(Cl)c(-c2cn(-c3ccc(C4CC4)nc3)c3ncc(-c4c(C)noc4C)cc23)c(OC(F)(F)F)c1` [P-0440, methyl 3-chloro-4-(1-(6-cyclopropylpyridin-3-yl)-5-(3,5-dimethylisoxazol-4-yl)-1H-pyrrolo[2,3-b]pyridin-3-yl)-5-(trifluoromethoxy)benzoate], for which the IC50 lay within 8 to 1000 µM. `Cc1noc(C)c1-c1cnc2c(c1)c(-c1c(Cl)cc(C(=O)O)cc1OC(F)(F)F)cn2-c1ccc(C2CC2)nc1` [P-0441, 3-chloro-4-(1-(6-cyclopropylpyridin-3-yl)-5-(3,5-dimethylisoxazol-4-yl)-1H-pyrrolo[2,3-b]pyridin-3-yl)-5-(trifluoromethoxy)benzoic acid]: the IC50 was 0.0001 to 1 µM. `CCOc1cc(C(=O)O)c(F)cc1-c1cn(C2CCN(C(=O)OC(C)(C)C)CC2)c2ncc(-c3c(C)noc3C)cc12` [P-0442, 4-(1-(1-(tert-butoxycarbonyl)piperidin-4-yl)-5-(3,5-dimethylisoxazol-4-yl)-1H-pyrrolo[2,3-b]pyridin-3-yl)-5-ethoxy-2-fluorobenzoic acid]: the IC50 fell in the range of 8 to 1000 µM.

For the molecule `COc1ccc(CC(=O)O)cc1-c1cn(-c2ccc(F)cc2F)c2ncc(-c3c(C)noc3C)cc12` [P-0443, 2-(3-(1-(2,4-difluorophenyl)-5-(3,5-dimethylisoxazol-4-yl)-1H-pyrrolo[2,3-b]pyridin-3-yl)-4-methoxyphenyl)acetic acid], the IC50 is 1 to 8 µM. `Cc1noc(C)c1-c1cnc2c(c1)c(-c1cc(F)c(C(=O)O)cc1OC(F)(F)F)cn2-c1ccc(C2CC2)nc1` [P-0444, 4-(1-(6-cyclopropylpyridin-3-yl)-5-(3,5-dimethylisoxazol-4-yl)-1H-pyrrolo[2,3-b]pyridin-3-yl)-2-fluoro-5-(trifluoromethoxy)benzoic acid]: the IC50 fell in the range of 1 to 8 µM. Regarding `CCOc1cc(C(=O)O)c(F)cc1-c1cn(C2CCN(C(=O)C(C)(C)C)CC2)c2ncc(-c3c(C)noc3C)cc12` [P-0445, 4-(5-(3,5-dimethylisoxazol-4-yl)-1-(1-pivaloylpiperidin-4-yl)-1H-pyrrolo[2,3-b]pyridin-3-yl)-5-ethoxy-2-fluorobenzoic acid], the IC50 lay within 8 to 1000 µM.

In the case of `CCOc1cc(C(=O)O)c(F)cc1-c1cn(C2CCN(CCC#N)CC2)c2ncc(-c3c(C)noc3C)cc12` [P-0446, 4-(1-(1-(2-cyanoethyl)piperidin-4-yl)-5-(3,5-dimethylisoxazol-4-yl)-1H-pyrrolo[2,3-b]pyridin-3-yl)-5-ethoxy-2-fluorobenzoic acid], the IC50 lay within 8 to 1000 µM.

In the case of `CCOc1cc(C(=O)O)c(F)cc1-c1cn(C2CCN(C(=O)CO)CC2)c2ncc(-c3c(C)noc3C)cc12` [P-0447, 4-(5-(3,5-dimethylisoxazol-4-yl)-1-(1-(2-hydroxyacetyl)piperidin-4-yl)-1H-pyrrolo[2,3-b]pyridin-3-yl)-5-ethoxy-2-fluorobenzoic acid], the IC50 lay in the range of 8 to 1000 µM. As for `CCc1onc(C)c1-c1cnc2c(c1)c(-c1c(Cl)cc(C(=O)O)cc1OC(F)(F)F)cn2-c1ccc(C2CC2)nc1` [P-0448, 3-chloro-4-(1-(6-cyclopropylpyridin-3-yl)-5-(5-ethyl-3-methylisoxazol-4-yl)-1H-pyrrolo[2,3-b]pyridin-3-yl)-5-(trifluoromethoxy)benzoic acid], the half-inhibitory concentration (IC50) is 1 to 8 µM. For `Cc1nnn(C)c1-c1cnc2c(c1)c(-c1cccc(C(=O)O)c1)cn2[C@@H](C)c1ccccn1` [P-0449, (S)-3-(5-(1,4-dimethyl-1H-1,2,3-triazol-5-yl)-1-(1-(pyridin-2-yl)ethyl)-1H-pyrrolo[2,3-b]pyridin-3-yl)benzoic acid], the IC50 is 1 to 8 µM.
